Laboratory results reported in patent publication US11518754B2, “Radiolabeled pharmaceuticals and methods of making and using same” (YALE UNIVERSITY, priority 2017, dated 2022).
Where “and” joins values, the source holds several entries; their conditions need not be identical. Identical values can stand only once.

Tests used:
[1] = biological target: SV2A (Macaca mulatta, UniProt H9EQH8); test: PET imaging studies in rhesus monkeys; details: for Binding potential (BPND): from VT, centrum semiovale as reference region
SV2A (Macaca mulatta, UniProt H9EQH8), sequence (H9EQH8 1-742): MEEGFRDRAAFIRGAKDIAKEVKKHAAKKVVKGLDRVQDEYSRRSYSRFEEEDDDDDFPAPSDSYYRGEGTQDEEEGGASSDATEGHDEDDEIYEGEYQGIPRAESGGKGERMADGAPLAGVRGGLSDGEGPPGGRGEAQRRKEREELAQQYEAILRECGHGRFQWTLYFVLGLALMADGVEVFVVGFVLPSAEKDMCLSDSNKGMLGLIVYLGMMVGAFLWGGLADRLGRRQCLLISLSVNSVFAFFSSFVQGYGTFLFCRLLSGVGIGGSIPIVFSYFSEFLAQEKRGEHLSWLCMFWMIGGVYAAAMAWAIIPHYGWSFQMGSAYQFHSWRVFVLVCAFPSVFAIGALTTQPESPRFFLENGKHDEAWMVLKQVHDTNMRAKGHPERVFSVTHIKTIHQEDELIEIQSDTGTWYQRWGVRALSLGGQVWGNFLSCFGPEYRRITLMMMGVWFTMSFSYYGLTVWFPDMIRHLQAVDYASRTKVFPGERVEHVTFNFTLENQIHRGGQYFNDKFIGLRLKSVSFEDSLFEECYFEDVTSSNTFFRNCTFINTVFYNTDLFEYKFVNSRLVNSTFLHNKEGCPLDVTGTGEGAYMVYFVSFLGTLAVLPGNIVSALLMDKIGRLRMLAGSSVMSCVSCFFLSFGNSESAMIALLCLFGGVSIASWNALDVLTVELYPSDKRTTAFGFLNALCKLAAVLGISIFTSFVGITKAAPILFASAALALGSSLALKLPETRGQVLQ
Description: Experiments were performed in rhesus monkeys (Macaca mulatta). Rhesus monkeys were sedated using intramuscular (i.m.) injection of ketamine and glycopyrrolate approximately 2 hours before the PET scan and anesthesia was maintained with isoflurane (1.5%-2.5%) for the duration of the experiments. Baseline PET scans were obtained after intravenous (i.v.) injection of ^11C-3, ^18F-3, ^18F-4, ^18F-5, ^18F-10, ^18F-11, or ^18F-12.
Arterial blood samples were collected during the PET scans to calculate the plasma input function and to determine the unmetabolized parent fraction using the automatic column-switching HPLC system. Plasma free fraction (fp) was measured in triplicate using the ultrafiltration method.
PET scans of the brain were acquired using the FOCUS 220 PET scanner (Siemens Preclinical Solutions) with a reconstructed image resolution of approximately 1.5 mm. After a transmission scan, the radioligand was injected i.v. as a 3 min slow bolus by an infusion pump (PHD 22/2000; Harvard Apparatus). List-mode data were acquired for 120-180 min and binned into sinograms with an applicable number of frames. Scan data were reconstructed with a Fourier rebinning/filtered backprojection algorithm with corrections for attenuation, scanner normalization, radiation scatter, and randoms. Regions of interest were manually delineated on a single representative anatomic rhesus monkey MR image registered to a template image. The regions used in this study were amygdala, brain stem, caudate, centrum semiovale, cerebellum, cingulate cortex, frontal cortex, globus pallidus, insular cortex, nucleus accumbens, occipital cortex, pons, putamen, temporal cortex, and thalamus. Registration parameters were obtained to apply the regions of interest to individual PET scans, and regional time-activity curves were generated. Regional time-activity curves of the brain were analyzed with the 1-tissue-(1T) compartment model. Fit quality was compared with the 2-tissue model and the multilinear analysis method to calculate VT.
Typical injected radioactivity amount was 0.5-5 mCi per injection, with typical injected mass amount of 1-10 μg.
Specific binding to SV2A was further examined for ^11C-3, ^18F-3, and ^18F-11 in blocking studies, where levetiracetam or UCB-J ((R)-3) was i.v. infused before injection of the radiotracers.

[2] = Plasma free fraction (fp) by ultrafiltration method; format: in vitro ADME, rhesus monkeys (Macaca mulatta); details: plasma (from arterial blood samples), rhesus monkey plasma
[3] = biological target: SV2A (Papio anubis, UniProt A0A096NYL0); test: PET measurement in an olive baboon; format: in vivo, olive baboon (Papio anubis); details: gray matter regions, baboon brain
SV2A (Papio anubis, UniProt A0A096NYL0), sequence (A0A096NYL0 1-742): as the sequence (H9EQH8 1-742) above, with G108S counted along it
Description: Experiments were conducted in one olive baboon (P. anubis). […] PET images of the brain were acquired using a Siemens Biograph mCT system (Siemens Medical Solutions). […] List-mode data were acquired for 120 min and binned into sinograms with the following frame timing: 6×30 sec; 3×1 min; 2×2 min; and 22×5 min.
PET data were reconstructed with a TrueX+TOF algorithm with corrections for attenuation, normalization, scatter and randoms. Regions of interest (ROIs) were manually delineated on a single representative anatomical baboon magnetic resonance image (MRI) registered to a template image. […] MRI-to-PET registration parameters were obtained to apply the ROIs to individual PET scans, and regional time-activity curves (TACs) were generated. VT values were estimated using a one-tissue (1T) compartment model with the metabolite-corrected input function.
Arterial blood samples were collected to determine the plasma input function, including measurement of the unmetabolized ^11C-3 fraction. The free fraction of ^11C-3 in plasma was determined in arterial blood samples taken immediately before ^11C-3 injection.

[4] = biological target: T1, SV2A (Homo sapiens (Human), UniProt Q7L0J3); test: PET imaging with (R)-11C-3 in patients with AD dementia and MCI; format: in vivo; details: AD/MCI patients vs cognitively normal subjects
T1 sequence (Q7L0J3 whole entry, looked up): as the sequence (H9EQH8 1-742) above, with S64G, V572I counted along it

[5] = biological target: T1, SV2A; test: PET imaging with (R)-11C-3 in patients with Parkinson's disease; format: in vivo; details: PD subjects vs age-matched healthy controls
[6] = biological target: T1, SV2A; test: PET imaging with (R)-11C-3 in patients with temporal lobe epilepsy
Description: PET imaging with (R)-^11C-3 was performed in healthy human subjects and patients with various disorders to determine if SV2A imaging can be used as an in vivo biomarker to detect changes in synaptic density in human diseases.
PET imaging with (R)-^11C-3 was carried out in ten healthy control subjects and nine patients of temporal lobe epilepsy (TLE) with mesial temporal sclerosis (MTS).

## Cc1cnccc1CN1CC(c2cc(F)c(F)c(F)c2)CC1=O (single isomer, unassigned) [^11C-3, 1-((3-methylpyridin-4-yl)methyl)-4-(3,4,5-trifluorophenyl) pyrrolidin-2-one]
[1]; Amygdala
  Binding potential (BPND): 0.85 ± 0.34
[1]; Brainstem
  Binding potential (BPND): 0.76 ± 0.21
[1]; Caudate nucleus
  Binding potential (BPND): 2.40 ± 0.72
[1]; Cerebellum
  Binding potential (BPND): 1.68 ± 0.31
[1]; Cingulate cortex
  Binding potential (BPND): 3.17 ± 0.84
[1]; Frontal cortex
  Binding potential (BPND): 3.18 ± 0.91
[1]; Globus pallidus
  Binding potential (BPND): 1.10 ± 0.28
[1]; Hippocampus
  Binding potential (BPND): 1.59 ± 0.39
[1]; Insular cortex
  Binding potential (BPND): 3.12 ± 0.81
[1]; Nucleus accumbens
  Binding potential (BPND): 3.04 ± 0.69
[1]; Occipital cortex
  Binding potential (BPND): 2.97 ± 0.65
[1]; Pons
  Binding potential (BPND): 0.75 ± 0.21
[1]; Putamen
  Binding potential (BPND): 2.42 ± 0.63
[1]; Temporal cortex
  Binding potential (BPND): 2.79 ± 0.61
[1]; Thalamus
  Binding potential (BPND): 2.03 ± 0.62
[1]; levetiracetam (30 mg/kg) or UCB-J (150 μg/kg) i.v. 10 min before radiotracer injection
  Uptake of radiotracer in blocking studies: reduced to background levels
[1]; rhesus monkey, in vivo, iv
  time to SUV peak in gray matter regions: slower
[2]
  fraction unbound: 0.44 ± 0.01
[3]
  peak uptake (standardized uptake value, SUV): 10-15
  time to peak uptake after injection: 6 to 16 min
[4]; P=0.001
  reduction in hippocampal VT: 28%
[4]; P=0.005
  reduction in hippocampal SV2A binding (BPND): 41%
[5]; cortical regions
  decrease in BPND: 16%-20%
[5]; cortical regions, listed as (R)-^11C-3
  decrease in VT: 19-23% and 19%-23%
[5]; putamen
  decrease in BPND: 16%
  decrease in VT: 15%
[5]; substantia nigra
  decrease in BPND: 33%
  decrease in VT: 19%
[6]; TLE subjects with MTS
  asymmetries in binding relative to 18F-FDG: 2.3 fold
[6]; hippocampus, nine TLE subjects with MTS
  BPND asymmetry indices: −38±21%
